Counter-ions that a name gives are not always drawn.
How the values were obtained:
Type in all cases: in vivo
C57BL/6 mice [1] = experiment: Trabecular bone volume of the proximal tibia by micro-CT, daily i.p. treatment for 30 days; details: for increase in tibia long bone bone-volume/total volume over baseline control: 30 days, micro-CT
Experimental: Using the assay described above and in Journal of Bone and Mineral Research 2006, 21(11), 1738-1749 (incorporated herein in its entirety), compounds of the present invention can be identified as promoting bone growth. For example, the mouse test animal is treated with a predetermined dose of a SOST antagonist candidate for a complete dosing schedule. A control mouse is treated with a control solution, preferably a non-irritating buffer solution or other carrier. Once the dosing schedule has been completed, both test and control animals are examined with sacrifice using micro-CT to determine the quantity of bone formation present.
(§1) Four month old male C57BL/6 mice were treated daily with saline vehicle or the sclerostin inhibitor of eburnamonine phosphate at several doses (via i.p) for 30 days. Study endpoints included a biochemical marker of bone formation; osteocalcin, measured by EIA Elisa, and measurement of trabecular bone volume by mico-CT analysis on the proximal tibia and spine (lumbar 5). […] See also FIG. 3, showing increase in bone volume for the tibia: 5 mg/kg (D) and 0.33 mg/kg (E).

C57BL/6 mice [2] = experiment: Serum osteocalcin (bone formation marker) by EIA Elisa, daily i.p. treatment for 30 days; details: for increase in osteocalcin serum levels: FIG. 4
Experimental: as §1

C57BL/6 mice [3] = experiment: Bone volume of the spine (lumbar 5) by micro-CT, daily i.p. treatment for 30 days; details: i.p. daily 30 days, dose not stated
Experimental: as §1

C57BL/6 mice [4] = experiment: Bone volume of the tibia by pQCT after IP treatment (procedure of Example 2); details: 10 mg/kg IP
Experimental: Four month old male C57BL/6 mice were treated daily with saline vehicle or the sclerostin inhibitor of eburnamonine phosphate at several doses (via i.p) for 30 days. […] See also FIG. 3, showing increase in bone volume for the tibia: 5 mg/kg (D) and 0.33 mg/kg (E). […] Using the procedure set forth in Example 2, vinpocetine citrate was investigated for bone growth.

Structure (SMILES) | increase in tibia long bone bone-volume/total volume over baseline control (C57BL/6 mice [1]; FIG. 1 (B), 5 mg/kg i.p. daily) [%] | increase in tibia long bone bone-volume/total volume over baseline control (C57BL/6 mice [1]; FIG. 1 (C), 1 mg/kg i.p. daily) [%] | increase in tibia long bone bone-volume/total volume compared to baseline controls (C57BL/6 mice [1]; FIG. 3 (D), 5 mg/kg) [%] | increase in tibia long bone bone-volume/total volume compared to baseline controls (C57BL/6 mice [1]; FIG. 3 (E), 0.33 mg/kg) [%] | percent change in serum osteocalcin increase versus saline controls (C57BL/6 mice [2]; FIG. 2, 5 mg/kg i.p. daily, 30 days, mice) [%] | increase in osteocalcin serum levels (C57BL/6 mice [2]; 0.33 mg/kg, mice) [%] | increase in bone volume of lumbar 5 (U-CT) (C57BL/6 mice [3]) [%] | increase in osteocalcin serum levels (C57BL/6 mice [2]; 10 mg/kg, over baseline) [%] | increase in bone volume of the tibia (pQCT) (C57BL/6 mice [4]) [%]
CCC12CCCN3CCc4c(n(c5ccccc45)C(=O)C1)C32 (stereo not drawn) [eburnamonine phosphate] | 17 | 10 | 9 | 17 | 35 | 39 | 52 | – | –
CCOC(=O)C1=CC2(CC)CCCN3CCc4c(n1c1ccccc41)C32 (stereo not drawn) [vinpocetine citrate] | – | – | – | – | – | – | – | 62 | 8

Reference: patent US8198292B2, “Vinpocetine and eburnamonine derivatives for promoting bone growth, treating renal damage and cancer, and devices thereof” (Osteogenex, Inc., priority 2008, dated 2012)
